The values that follow come from US10463671B2, “Combination therapy for treating cancer” (Epizyme, Inc., priority 2013, dated 2019).

Holding throughout (experiment): Medium throughput combination proliferation assay (CellTiter-Glo, Chou-Talalay CI / potency shift)
Background: Cellular ATP, detected with luciferase, serves as a proxy for viable cell number.

One experiment concerns WSU-DLCL2 cells. Conditions: for IC50: Homo sapiens, WSUDLCL2, 72 h, read-out: Potency (IC50); for Summary of Combinations with Compound 44: WSU-DLCL2 (EZH2 Mutant GCB), drug combined with Compound 44; for growth inhibition by the drug by itself: WSU-DLCL2 (EZH2 mutant).
Another experiment relates to SU-DHL-10 cells. Conditions: for CI range (combination index): combination with Compound 44 at constant ratio, CI range above Fractional effect of 0.5; for IC50: read-out: Potency (IC50), SU-DHL-10 (GCB sub-type EZH2 Y646F), after 3 days of dosing; for IC50 / growth inhibition by the drug by itself: single agent; for Summary of Combinations with Compound 44: SU-DHL10 (EZH2 Mutant GCB), drug combined with Compound 44; for growth inhibition by the drug by itself: SU-DHL10 (EZH2 mutant).

The subject of another experiment is DOHH2 cells. Conditions: for IC50: read-out: Potency (IC50), DOHH-2 (GCB sub-type WT EZH2), single agent, after 3 days of dosing; for 1/α: DOHH2, combination with Compound 44, data normalized to individual 6438 concentrations instead of DMSO; for Summary of Combinations with Compound 44: DOHH2 (EZH2 WT GCB), drug combined with Compound 44.
The subject of another experiment is SU-DHL-5 cells. Conditions: for IC50: Homo sapiens, SU-DHL-5, 72 h, read-out: Potency (IC50); for 1/α: combination with Compound 44.
A further experiment relates to OCI-LY19 cells. Conditions: for IC50: Homo sapiens, OCI-LY19, 72 h, read-out: Potency (IC50); for 1/α: OCI-LY19, combination with Compound 44.
Another experiment deals with Toledo cells. Conditions: for IC50: read-out: Potency (IC50), single agent, dosed for 5 days; for IC50 / 1/α: Toledo; for 1/α: combination with Compound 44; for Summary of Combinations with Compound 44: Toledo (EZH2 WT GCB), drug combined with Compound 44.
A further experiment concerns SU-DHL6 cells. Type of experiment: cell-based. Conditions: SU-DHL6 (EZH2 Mutant GCB); drug combined with Compound 44.

Marks after values point to notes of the source that are not given here. Bounds are passed on as bounds.

The term IC50 denotes the concentration at which inhibition is half-maximal. On to `CC1(C)CCC(CN2CCN(c3ccc(C(=O)NS(=O)(=O)c4ccc(NCC5CCOCC5)c([N+](=O)[O-])c4)c(Oc4cnc5[nH]ccc5c4)c3)CC2)=C(c2ccc(Cl)cc2)C1` [ABT-199], for which the IC50 was 1940 nM in the experiment on WSU-DLCL2 cells; 3040 nM in the experiment on SU-DHL-10 cells; 77 nM with DOHH2 cells; over 10000 nM in the experiment on SU-DHL-5 cells; 53 nM in the experiment with OCI-LY19 cells; 190 nM in the experiment with Toledo cells. In addition, the “CI range (combination index)” value in the experiment on SU-DHL-10 cells (SU-DHL-10) is on record as 1.2-1.4^e. For the same compound, the results for the 1/α result in the experiment on SU-DHL-5 cells (SU-DHL-5) and with OCI-LY19 cells were “No Effect” and 4.20, respectively.

Regarding `CC(C)C[C@H](NC(=O)[C@H](Cc1ccccc1)NC(=O)c1cnccn1)B(O)O` [Bortezomib], the IC50 in the experiment with WSU-DLCL2 cells is 6.5 nM; in the experiment with SU-DHL-10 cells, 8.6 nM; in the experiment with DOHH2 cells, 6.6 nM; with SU-DHL-5 cells it was 4 nM; in the experiment on OCI-LY19 cells, 12 nM; with Toledo cells, 4.3 nM. In addition, the 1/α with DOHH2 cells turned out to be 0.96; in the experiment with OCI-LY19 cells it was 1.67; in the experiment with Toledo cells, 0.96.

Consider `C[C@@H]1C[C@H]2[C@@H]3CCC4=CC(=O)C=C[C@]4(C)[C@@]3(F)[C@@H](O)C[C@]2(C)[C@@]1(O)C(=O)CO` [Dexamethasone], for which the IC50 in the experiment with WSU-DLCL2 cells was over 10000 nM; with SU-DHL-10 cells it was over 100 nM; in the experiment on DOHH2 cells, 5.6 nM; with SU-DHL-5 cells, 3.4 nM; with OCI-LY19 cells, 79 nM; with Toledo cells, over 100 nM. The 1/α in the experiment with SU-DHL-10 cells (SU-DHL-10, combination with Compound 44) is 3.7; in the experiment with DOHH2 cells, 4.2; in the experiment on OCI-LY19 cells, 7.7; with Toledo cells, “No effect”. In addition, the “Summary of Combinations with Compound 44” value in the experiment on Toledo cells is listed as “No effect”.

As for `COc1cccc2c1C(=O)c1c(O)c3c(c(O)c1C2=O)C[C@@](O)(C(=O)CO)C[C@@H]3O[C@H]1C[C@H](N)[C@H](O)[C@H](C)O1` [Doxorubicin], the “Summary of Combinations with Compound 44” value in the experiment with SU-DHL6 cells is “Additive”; with WSU-DLCL2 cells, “Synergy”; with SU-DHL-10 cells, “Additive”; with DOHH2 cells it was “No effect”; in the experiment with Toledo cells, “No effect”. Further, the “growth inhibition by the drug by itself” value with WSU-DLCL2 cells (single agent) and with SU-DHL-10 cells was “concentration-dependent growth inhibition” each time.

In the case of `CO[C@H]1C[C@@H]2CC[C@@H](C)[C@@](O)(O2)C(=O)C(=O)N2CCCC[C@H]2C(=O)O[C@H]([C@H](C)C[C@@H]2CC[C@@H](OCCO)[C@H](OC)C2)CC(=O)[C@H](C)/C=C(\C)[C@@H](O)[C@@H](OC)C(=O)[C@H](C)C[C@H](C)/C=C/C=C/C=C/1C` [Everolimus], the IC50 with WSU-DLCL2 cells is 0.653 nM; in the experiment on SU-DHL-10 cells, 0.854 nM; in the experiment on DOHH2 cells, 0.13 nM; with SU-DHL-5 cells, 0.72 nM; with Toledo cells, 0.1 nM. For the same compound, the “Summary of Combinations with Compound 44” value in the experiment with WSU-DLCL2 cells and in the experiment with SU-DHL-10 cells was “very strong synergy” in each case. The 1/α entry in the experiment on OCI-LY19 cells and in the experiment with Toledo cells was “No effect” each time.

With `C=CC(=O)N1CCC[C@@H](n2nc(-c3ccc(Oc4ccccc4)cc3)c3c(N)ncnc32)C1` [Ibrutinib], the IC50 in the experiment on WSU-DLCL2 cells is 278 nM; in the experiment with SU-DHL-10 cells, 1150 nM; in the experiment on DOHH2 cells, 956 nM; in the experiment on SU-DHL-5 cells it was 1330 nM; in the experiment on OCI-LY19 cells, over 10000 nM; in the experiment on Toledo cells it was over 10000 nM. Moreover, the 1/α in the experiment with DOHH2 cells was 0.67; with OCI-LY19 cells, “No effect”; in the experiment on Toledo cells it was “No effect”.

As for `CC[C@H](Nc1ncnc2[nH]cnc12)c1nc2cccc(F)c2c(=O)n1-c1ccccc1` [Idelalisib], the IC50 was 2050 nM in the experiment with WSU-DLCL2 cells; 8430 nM in the experiment on SU-DHL-10 cells; 2980 nM in the experiment on DOHH2 cells; 2590 nM in the experiment with SU-DHL-5 cells; over 10000 nM in the experiment with OCI-LY19 cells; 9800 nM in the experiment on Toledo cells. The “Summary of Combinations with Compound 44” value in the experiment on WSU-DLCL2 cells and in the experiment on SU-DHL-10 cells was “very strong synergy” throughout. Also, the 1/α was 0.59 in the experiment on DOHH2 cells, “No effect” in the experiment with OCI-LY19 cells and 1.1^ with Toledo cells.

Turning to `NC1(c2ccc(-c3nc4ccn5c(=O)[nH]nc5c4cc3-c3ccccc3)cc2)CCC1` [MK-2206], the IC50 is 127 nM in the experiment with WSU-DLCL2 cells; 275 nM with SU-DHL-10 cells; 86 nM with DOHH2 cells; 162 nM in the experiment with SU-DHL-5 cells; 304 nM in the experiment with OCI-LY19 cells; 95 nM in the experiment on Toledo cells. Moreover, the “Summary of Combinations with Compound 44” value in the experiment on WSU-DLCL2 cells and with SU-DHL-10 cells was “very strong synergy” in each case. The 1/α was found to be 0.64 in the experiment with DOHH2 cells and 71.40 in the experiment on OCI-LY19 cells.

In the case of `CC1(C)CCC(c2ccc(Cl)cc2)=C(CN2CCN(c3ccc(C(=O)NS(=O)(=O)c4ccc(N[C@H](CCN5CCOCC5)CSc5ccccc5)c(S(=O)(=O)C(F)(F)F)c4)cc3)CC2)C1` [Navitoclax], the IC50 is 3540 nM in the experiment with WSU-DLCL2 cells; over 10000 nM in the experiment on SU-DHL-10 cells; 540 nM in the experiment with DOHH2 cells; over 10000 nM in the experiment on SU-DHL-5 cells; 131 nM in the experiment on OCI-LY19 cells; 590 nM in the experiment on Toledo cells. Further, the values for the 1/α entry in the experiment with SU-DHL-5 cells (SU-DHL-5), in the experiment with OCI-LY19 cells and in the experiment with Toledo cells were “No Effect”, 6.60 and “No effect”, respectively.

Take `COC1=CC(c2cc3ccccc3[nH]2)=N/C1=C\c1[nH]c(C)cc1C` [Obatoclax]: the IC50 came to 59 nM with WSU-DLCL2 cells; 19.5 nM in the experiment with SU-DHL-10 cells; 51 nM in the experiment with DOHH2 cells; 9.8 nM in the experiment with SU-DHL-5 cells; 42 nM in the experiment with OCI-LY19 cells; 96 nM in the experiment with Toledo cells. Further, the “CI range (combination index)” value in the experiment with WSU-DLCL2 cells (WSU-DLCL2, combination with Compound 44 at constant ratio, CI range above Fractional effect of 0.5) is 1.10^e; with SU-DHL-10 cells (SU-DHL-10) it was 0.91-1.36^e; in the experiment on SU-DHL-5 cells (SU-DHL-5, combination with Compound 44 at constant ratio, CI range above Fractional effect of 0.5), 1.26-1.61^e. Besides, the 1/α in the experiment with OCI-LY19 cells worked out at 1.50.

As for `COc1cc(Nc2ncc(F)c(Nc3ccc4c(n3)NC(=O)C(C)(C)O4)n2)cc(OC)c1OC` [Tamatinib], the IC50 with WSU-DLCL2 cells is 3420 nM; in the experiment with SU-DHL-10 cells, 2210 nM; in the experiment on DOHH2 cells, 1210 nM; in the experiment on SU-DHL-5 cells, 3760 nM; with OCI-LY19 cells, over 10000 nM; with Toledo cells it was 3200 nM. The “Summary of Combinations with Compound 44” value in the experiment with WSU-DLCL2 cells and in the experiment on SU-DHL-10 cells was “very strong synergy” in each case. The 1/α in the experiment with DOHH2 cells is 0.81; in the experiment on OCI-LY19 cells, “No effect”; with Toledo cells, “No effect”.

On to `CC(=O)Nc1cccc(-n2c(=O)n(C3CC3)c(=O)c3c(Nc4ccc(I)cc4F)n(C)c(=O)c(C)c32)c1` [Trametinib], for which the IC50 is 8610 nM with WSU-DLCL2 cells; over 10000 nM in the experiment on SU-DHL-10 cells; over 10000 nM in the experiment on DOHH2 cells; over 10000 nM with SU-DHL-5 cells; over 10000 nM in the experiment with OCI-LY19 cells; over 10000 nM in the experiment on Toledo cells. The 1/α entry in the experiment on OCI-LY19 cells and in the experiment with Toledo cells was “No effect” each time.

For `CC[C@]1(O)C[C@H]2CN(CCc3c([nH]c4ccccc34)[C@@](C(=O)OC)(c3cc4c(cc3OC)N(C=O)[C@H]3[C@@](O)(C(=O)OC)[C@H](OC(C)=O)[C@]5(CC)C=CCN6CC[C@]43[C@@H]65)C2)C1` [Vincristine], the “Summary of Combinations with Compound 44” value in the experiment with SU-DHL6 cells was “Additive”; in the experiment with WSU-DLCL2 cells it was “Additive”; in the experiment on WSU-DLCL2 cells (listed as vincristine) it was “Combination benefit”; in the experiment with SU-DHL-10 cells it was “Additive”; with SU-DHL-10 cells (listed as vincristine), “Combination benefit”; in the experiment on DOHH2 cells it was “No effect”. Further, the “Summary of Combinations with Compound 44” value with Toledo cells is recorded as “No effect”. Besides, the “growth inhibition by the drug by itself” value with WSU-DLCL2 cells (single agent) and in the experiment with SU-DHL-10 cells was “concentration-dependent growth inhibition” throughout.

As for “Rituximab: the antibody combined with chemotherapeutics in R-CHOP, targets cd-20”, the 1/α in the experiment on WSU-DLCL2 cells (WSU-DLCL2, combination with Compound 44) turned out to be 2.6. Besides, the “Potency (IC50), Rituximab” value with WSU-DLCL2 cells (WSU-DLCL2, single agent, after 3 days of dosing) is >10^a μg/ml.
